The source of these data is ChEMBL document CHEMBL3639137, “3H-imidazo [4, 5-C] pyridine-6-carboxamides as anti-inflammatory agents” (2014).

Structures are written as SMILES.

This assay concerns the target T1, Prostaglandin E synthase (Homo sapiens, UniProt O14684).
T1 sequence (O14684 whole entry): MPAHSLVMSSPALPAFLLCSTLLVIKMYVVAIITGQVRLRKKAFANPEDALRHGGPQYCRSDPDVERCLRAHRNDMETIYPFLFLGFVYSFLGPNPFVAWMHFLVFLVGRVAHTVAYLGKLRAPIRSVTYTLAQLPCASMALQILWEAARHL
As to the kind of experiment: Enzyme Assay: The aim of this assay is to determine the affinity of a test compound for the mPGES-1 enzyme. 47 ul of recombinant human mPGES-1 (0.5 ug protein/well) containing microsomal suspension in a buffer containing GSH, (2.5 mmol/L L-Glutathione reduced, dissolved in 0.1 mol/L Phosphat Buffer pH 7.4) is dispensed in a 384-well plate and thereafter 1 ul of the test compound(s) is/are added and incubated for 25 minutes at room temperature. The enzyme reaction is started by the addition of 2 ul PGH2 (final conc. 2 uM) dissolved in water-free Diglyme. After 60 seconds the reaction is terminated by addition of a stop solution containing FeCl2 (10 uL 0.074 mol/l FeCl2). The samples are diluted between 1:25 in PBS (Phosphate Buffered Saline). 10 ul of the diluted samples are transferred to 384-well low volume plate.
`Cn1c(Nc2c(Cl)ccc(CNC(=O)C(C)(C)C)c2Cl)nc2cc(C(=O)Nc3cccc(C#N)c3)c(OCC(F)F)cc21`: the IC50 (commonly the concentration needed to halve the response being measured) is 3 nM.

For the molecule `Cn1c(Nc2c(Cl)ccc(CNC(=O)C(C)(C)C)c2Cl)nc2cc(C(=O)Nc3ccc(Br)cc3)c(F)cc21`, the IC50 turned out to be 2 nM.

Regarding `CC(C)(C)C(=O)NCc1ccc(Cl)c(Nc2nc3c(F)c(OCC(F)(F)F)c(C(=O)N[C@H]4CC[C@H](C(F)(F)F)CC4)cc3[nH]2)c1Cl`, the IC50 turned out to be 2 nM.

On to `CC(C)(C)C(=O)NCc1ccc(Cl)c(Nc2nc3cc(OC(F)F)c(C(=O)N[C@H]4CC[C@H](C(F)(F)F)CC4)cc3[nH]2)c1Cl`, for which the IC50 came out at 2 nM.
